The nature of data set [1]: Cytotoxicity determination in HepG2.2.15 cells (CCK-8). It counts as cell-based. The settings on record: human, 6 days of compound treatment, CCK-8, highest concentration 100 μM. The procedure, abridged: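 HepG2.2.15 cells seeded at 5,000 cells/well in 2% FBS medium, incubated overnight at 37° C., then treated 6 days with compounds (8 points, 3-fold dilutions, top 100 μM), medium refreshed once midway. CCK-8 added for 2.5 h; A450 read against 630 nm reference; CC50 calculated, averaged over repeats.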

In the next data set the test system is HBV. Kind of data set: HBV inhibitory activity: HBV DNA in the culture medium of HepG2.2.15 cells by q-PCR. It counts as cell-based. The settings on record: HepG2.2.15 cells, 6 days of compound treatment, HBV DNA in culture medium by q-PCR, highest concentration 10 μM, read-out: EC50. The essentials: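 HepG2.2.15 cells in 2% FBS medium, 40,000 per well, treated 6 days with compound (medium refreshed once), eight 3-fold dilutions from 10 μM top. HBV DNA extracted from culture medium and quantified by q-PCR; EC50 averaged over repeats. Cytotoxicity run in parallel at 5,000 cells per well, top 100 μM, giving CC50.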

Where [2] appears, read: Hepatitis B virus, HepG2.2.15, 144 h.

The values that follow come from patent US11639350B2, “Heteroaryldihydropyrimidine derivatives and methods of treating hepatitis B infections” (Janssen Pharmaceutica NV, priority 2018, dated 2023).

For orientation: CC50 means the concentration that lowers cell viability or growth by half. As usually defined, the EC50 is the midpoint of the concentration-response curve.

The structures appear in SMILES notation. Like-named read-outs stand apart in the source and are kept apart here.

Consider `COC(=O)C1=C([C@H]2CC[C@H](S(=O)(=O)NCCO)CC2)NC(c2nccs2)=NC1c1ccc(F)c(F)c1Cl` (single isomer, unassigned) [Compound 291C, (trans)-Methyl 4-(2-chloro-3,4-difluorophenyl)-6-(4-(N-(2-hydroxyethyl)sulfamoyl)cyclohexyl)-2-(thiazol-2-yl)-1,4-dihydropyrimidine-5-carboxylate], for which the midpoint of cytotoxicity in data set [1], the CC50 at 6 days, lay at 12 µM. Besides, the EC50 with HBV (setting [2]) came out at 0.016 µM.
`CCOC(=O)C1=C(C2CCN(S(=O)(=O)[C@H]3C[C@H](C(=O)O)C3)CC2)NC(c2nccs2)=NC1c1ccc(F)c(F)c1C` (single isomer, unassigned) [Compound 343A, (trans)-3-((4-(6-(3,4-difluoro-2-methylphenyl)-5-(ethoxycarbonyl)-2-(thiazol-2-yl)-3,6-dihydropyrimidin-4-yl)piperidin-1-yl)sulfonyl)cyclobutanecarboxylic Acid] returned a CC50 at 6 days in data set [1] of 40.8 µM. For the same molecule, the EC50 in the data set on HBV worked out at 0.089 µM.
Molecule `COC(=O)C1=C(C2CCN(S(C)(=N)=O)CC2)NC(c2nccs2)=NC1c1ccc(F)c(F)c1Cl` (stereo not drawn) [Compound 205A, methyl 4-(2-chloro-3,4-difluorophenyl)-6-(1-(S-methylsulfonimidoyl)piperidin-4-yl)-2-(thiazol-2-yl)-1,4-dihydropyrimidine-5-carboxylate] showed a CC50 at 6 days in data set [1] of 42.3 µM. In the data set with HBV, the EC50 is 0.007 µM.
Molecule `COC(=O)C1=C(C2CCN(C(=O)CNC(=O)OC(C)(C)C)CC2)NC(c2nccs2)=NC1c1ccc(F)cc1Cl` (stereo not drawn) [Compound 129, 6-[1-(2-tert-Butoxycarbonylamino-acetyl)-piperidin-4-yl]-4-(2-chloro-4-fluoro-phenyl)-2-thiazol-2-yl-1,4-dihydro-pyrimidine-5-carboxylic Acid Methyl Ester] returned a CC50 at 6 days in data set [1] of 28.2 µM. Also, the EC50 in the data set with HBV (setting [2]) is 0.055 µM.
The matching figures for `COC(=O)C1=C(C2CCN(C(C)=O)CC2)NC(c2nccs2)=NC1c1ccc(F)cc1Cl` (single isomer, unassigned) [Compound 2B, Methyl 6-(1-acetylpiperidin-4-yl)-4-(2-chloro-4-fluorophenyl)-2-(thiazol-2-yl)-1,4-dihydropyrimidine-5-carboxylate]: above 100 µM and 0.338 µM.
The matching figures for `COC(=O)C1=C(C2CCN(S(=O)(=O)[C@H]3C[C@H](C(=O)O)C3)CC2)NC(c2nccs2)=NC1c1ccc(F)cc1Br` (stereo partly drawn) [Compound 241B, (trans)-3-((4-(−6-(2-Bromo-4-fluorophenyl)-5-(methoxycarbonyl)-2-(thiazol-2-yl)-3,6-dihydropyrimidin-4-yl)piperidin-1-yl)sulfonyl)cyclobutanecarboxylic Acid]: 60 µM and 0.12 µM.
The corresponding values for `CCOC(=O)C1=C(C2CCN(S(=O)(=O)[C@H]3C[C@H](C(=O)O)C3)CC2)NC(c2nccs2)=NC1c1ccc(F)cc1Br` (stereo partly drawn) [Compound 333B, (trans)-3-((4-(6-(2-bromo-4-fluorophenyl)-5-(ethoxycarbonyl)-2-(thiazol-2-yl)-3,6-dihydropyrimidin-4-yl)piperidin-1-yl)sulfonyl)cyclobutane-1-carboxylic Acid] are 33.1 µM and 0.035 µM.
In data set [1], `COC(=O)C1=C([C@H]2CC[C@H](C(=O)OC)CC2)NC(c2nccs2)=NC1c1cccc(F)c1Cl` (single isomer, unassigned) [Compound 16X, Methyl 4-(2-chloro-3-fluorophenyl)-6-(trans-4-(methoxycarbonyl)-cyclohexyl)-2-(thiazol-2-yl)-1,4-dihydropyrimidine-5-carboxylate] had a CC50 at 6 days of 29.3 µM. In addition, the EC50 in the data set on HBV (setting [2]) was 0.049 µM.
The matching figures for `COC(=O)C1=C(C2CCN(S(=O)(=O)C3CC3)CC2)NC(c2nccs2)=NC1c1ccc(F)cc1Cl` (stereo not drawn) [Compound 100, Methyl 4-(2-chloro-4-fluorophenyl)-6-(1-(cyclopropylsulfonyl)-piperidin-4-yl)-2-(thiazol-2-yl)-1,4-dihydropyrimidine-5-carboxylate]: 7.2 µM and 0.166 µM.
The corresponding values for `CNS(=O)(=O)[C@H]1CC[C@H](C2=C(C(=O)OC)C(c3ccc(F)c(F)c3Cl)N=C(c3c(F)cc(F)cc3F)N2)CC1` (single isomer, unassigned) [Compound 167A, methyl 4-(2-chloro-3,4-difluorophenyl)-6-((trans)-4-(N-methylsulfamoyl)cyclohexyl)-2-(2,4,6-trifluorophenyl)-1,4-dihydropyrimidine-5-carboxylate] are 11.6 µM and 0.034 µM.
`COC(=O)C1=C(C2CCN(S(=O)(=O)[C@H]3CC[C@H](CC(=O)O)CC3)CC2)NC(c2nccs2)=NC1c1ccc(F)c(F)c1Cl` (relative stereo) [Compound 478A, (trans)-2-(4-((4-(6-(2-Chloro-3,4-difluorophenyl)-5-(methoxycarbonyl)-2-(thiazol-2-yl)-3,6-dihydropyrimidin-4-yl)piperidin-1-yl)sulfonyl)cyclohexyl)acetic Acid] came in with a CC50 at 6 days in data set [1] of 9.9 µM. Also, the EC50 with HBV (setting [2]) is 0.021 µM.
On to `COC(=O)C1=C(C2CCN(S(=O)(=O)C[C@H]3CC[C@H](C(=O)O)CC3)CC2)NC(c2nccs2)=NC1c1ccc(F)cc1Cl` (stereo partly drawn) [Compound 422, trans-4-(((4-(6-(2-chloro-4-fluorophenyl)-5-(methoxycarbonyl)-2-(thiazol-2-yl)-3,6-dihydropyrimidin-4-yl)piperidinyl)sulfonyl)methyl)cyclohexane-1-carboxylic Acid], for which the midpoint of cytotoxicity in data set [1], the CC50 at 6 days, lay at 26.9 µM. Also, the concentration for a half-maximal effect (EC50) with HBV (setting [2]) stood at 0.027 µM.
The matching figures for `COC(=O)C1=C(C2CCN(S(=O)(=O)[C@H]3C[C@H](C(=O)O)C3)CC2)NC(c2nccs2)=NC1c1ccc(F)c(F)c1C` (stereo partly drawn) [Compound 309C, (trans)-3-((4-(6-(3,4-Difluoro-2-methylphenyl)-5-(methoxycarbonyl)-2-(thiazol-2-yl)-3,6-dihydropyrimidin-4-yl)piperidin-1-yl)sulfonyl)cyclobutanecarboxylic Acid]: 36.2 µM and 0.047 µM.
The corresponding values for `COC(=O)C1=C(C2CCN(S(=O)(=O)[C@H]3CC[C@@H](C(=O)O)CC3)CC2)NC(c2nccs2)=NC1c1ccc(F)cc1Cl` (relative stereo) [Compound 313A, (cis)-4-((4-(6-(2-Chloro-4-fluorophenyl)-5-(methoxycarbonyl)-2-(thiazol-2-yl)-3,6-dihydropyrimidin-4-yl)piperidin-1-yl)sulfonyl)-cyclohexanecarboxylic Acid] are 35 µM and 0.058 µM.
`CCOC(=O)C1=C([C@H]2CC[C@H](C(=O)O)CC2)NC(c2nccs2)=NC1c1ccc(F)c(F)c1C` (stereo partly drawn) [Compound 154A] had a CC50 at 6 days in data set [1] of 30.7 µM. In the data set on HBV (setting [2]), the EC50 stood at 0.071 µM.
The corresponding values for `COC(=O)C1=C(C23CC(NC(C)=O)(C2)C3)NC(c2nccs2)=NC1c1ccc(F)cc1Cl` (stereo not drawn) [Compound 391B, Methyl 6-(3-acetamidobicyclo[1.1.1]pentan-1-yl)-4-(2-chloro-4-fluorophenyl)-2-(thiazol-2-yl)-1,4-dihydropyrimidine-5-carboxylate] are 46.8 µM and 0.068 µM.
As to `COC(=O)C1=C(C2CCN(S(=O)(=O)[C@H]3CC[C@@H](CC(=O)O)CC3)CC2)NC(c2nccs2)=NC1c1ccc(F)cc1Cl` (relative stereo) [Compound 476B, (cis)-2-(4-((4-(6-(2-Chloro-4-fluorophenyl)-5-(methoxycarbonyl)-2-(thiazol-2-yl)-3,6-dihydropyrimidin-4-yl)piperidin-1-yl)sulfonyl)cyclohexyl)acetic Acid], the CC50 at 6 days in data set [1] amounted to 30.2 µM. The EC50 with HBV (setting [2]) was determined as 0.044 µM.
The matching figures for `COC(=O)C1=C(C2CCN(S(=O)(=O)C3COC3)CC2)NC(c2nccs2)=NC1c1ccc(F)cc1Cl` (single isomer, unassigned) [Compound 110B, Methyl 4-(2-chloro-4-fluorophenyl)-6-(1-(oxetan-3-ylsulfonyl)-piperidin-4-yl)-2-(thiazol-2-yl)-1,4-dihydropyrimidine-5-carboxylate]: above 10 µM and 0.798 µM.
The corresponding values for `CCOC(=O)C1=C(C2CCN(S(=O)(=O)[C@H]3C[C@H](C(=O)O)C3)CC2)NC(c2nccs2)=NC1c1ccc(F)cc1Cl` (stereo partly drawn) [Compound 329B, (trans)-3-((4-(6-(2-Chloro-4-fluorophenyl)-5-(ethoxycarbonyl)-2-(thiazol-2-yl)-3,6-dihydropyrimidin-4-yl)piperidin-1-yl)sulfonyl)cyclobutane-carboxylic Acid] are 60 µM and 0.069 µM.
The matching figures for `COC(=O)C1=C(C2CCN(S(C)(=O)=O)CC2)NC(c2nccs2)=NC1c1cccc(F)c1Cl` (stereo not drawn) [Compound 112, Methyl 4-(2-chloro-3-fluorophenyl)-6-(1-(methylsulfonyl)-piperidin-4-yl)-2-(thiazol-2-yl)-1,4-dihydropyrimidine-5-carboxylate]: 43.2 µM and 0.293 µM.
Regarding `CCOC(=O)C1=C(C2CCN(S(=O)(=O)CCO)CC2)NC(c2nccs2)=NC1c1ccc(F)c(F)c1Cl` (single isomer, unassigned) [Compound 356B, Ethyl 4-(2-chloro-3,4-difluorophenyl)-6-(1-((2-hydroxyethyl)sulfonyl)piperidin-4-yl)-2-(thiazol-2-yl)-1,4-dihydropyrimidine-5-carboxylate], the midpoint of cytotoxicity in data set [1], the CC50 at 6 days, lay at 12.2 µM. The EC50 in the data set on HBV (setting [2]) came out at 0.006 µM.
